Here are results for three molecules from US20240186515A1, “ELECTROLYTE SOLUTION FOR REDOX FLOW BATTERY INCLUDING ORGANIC ACTIVE MATERIAL AND REDOX FLOW BATTERY USING THE SAME” (priority 2022, published 2024).

A short description of this series: Cyclic voltammetry of electrolyte solution. The settings on record: for Number of reaction electrons: reversibly usable electrons. Type of series: physicochemical. An excerpt: For analysis of electrochemical properties of an electrolyte solution, cyclic voltammetry (CV) was used. The cyclic voltammetry is an electrochemical measurement method which is commonly used a lot, and is a method of obtaining a current-potential curve by scanning an electrode potential of a working electrode with a triangular wave at a constant speed. A method of recording a current flowing when potential is changed in proportion to time as a potential-current curve is called a potential sweep method, and when the potential is repeatedly applied, it is called cyclic voltammetry. The cyclic voltammetry allows qualitative understanding of a reaction occurring on an electrode surface such as potential at the reaction occurs, reaction speed, and reactivity of a reaction product, and is widely used in the electrochemical field.
During cyclic voltammetry measurement, a potential scanning speed was applied at 10 to 300 mV/s, and the measurement results are shown in FIGS. 1 to 3.

Where [1] appears, read: 0.01 M in 1 M Na2SO4, glassy carbon working electrode.

In the case of `C[n+]1ccc(-c2cc[n+](C)cc2)cc1.O.[Cl-].[Cl-]` [Comparative Example 1, methyl viologen dichloride hydrate], under setting [1], the “Negative electrode one-electron reaction potential” value is reported as −0.54 V vs. NHE. Moreover, where the note is “FIG. 1, text”, the “Reduction and oxidation currents, negative electrode area, first electron reaction” value was “around −0.54 V”; the “Reduction and oxidation currents, negative electrode area, second electron reaction” value is ~−0.75 V. Also, under “cyclic voltammetry curves”, the “Reversibility of second electron (two-electron) reaction in negative electrode area” value (shortened to “Reversibility of second electron”) was “irreversible”.
As for `C[n+]1ccc(-c2cc[n+](-c3cc(O)ccc3O)cc2)cc1` [Comparative Example 2], the “Number of reaction electrons” value turned out to be 1. Besides, under setting [1], the “Negative electrode one-electron reaction potential” value is given as −0.34 V vs. NHE and the “Positive electrode reaction potential” value came to 0.59 V vs. NHE. Under “FIG. 1, text”, the “Reduction and oxidation currents, negative electrode area, first electron reaction” value is “around −0.34 V”; the “Reduction and oxidation currents, negative electrode area, second electron reaction” value is given as ~−0.65 V; the “Two-electron reduction and oxidation currents derived from hydroquinone, positive electrode area” value was 0.59 V. Also, the “Reversibility of second electron” value (cyclic voltammetry curves) is listed as “did not reach a target level”.
For the molecule `C[N+](C)(C)CCC[n+]1ccc(-c2cc[n+](-c3cc(O)ccc3O)cc2)cc1` [Example 1], the “Number of reaction electrons” value is recorded as 2. Under setting [1], the “Negative electrode one-electron reaction potential” value is recorded as −0.48 V vs. NHE, the “Negative electrode two-electron reaction potential” value was −0.80 V vs. NHE and the “Positive electrode reaction potential” value came to 0.46 V vs. NHE. Also, the “Reversibility of second electron” value (cyclic voltammetry curves) is reported as “showed a reversible shape”. Also, the “Reversibility in positive electrode area” value (cyclic voltammetry curves, 100 mV s^−1, FIG. 3) is given as “reversible behavior was shown”.
